Here are results for one compound from patent publication US20150118231A1, “APOE4 ANTIBODIES FOR TREATMENT OF NEURODEGENERATIVE CONDITIONS” (RAMOT AT TEL-AVIV UNIVERSITY LTD., priority 2012, published 2015).

Assay [1] has as its system apoE3 and apoE4 mice. Kind of assay: Bexarotene by gavage: Morris swim test. Format: in vivo. Particulars: 100 mg per kg per day by gavage. The source says:
Next, the mice were further investigated following removal of the platform from the water arena.

Assay [2] has as its system apoE3 and apoE4 mice. Put plainly: Bexarotene by gavage: fear conditioning test. The class given is in vivo. The following applies: 100 mg per kg per day by gavage; mild electric shock.
A further assay deals with mouse model of AD. The following applies: oral administration; cited from earlier work.
Assay [3] has as its system apoE3 and apoE4 mice. Kind of assay: Bexarotene by gavage: object recognition test. Particulars: 100 mg per kg per day by gavage; apoE4 mice prefer the novel object, similarly to apoE3 mice.

On to `C=C(c1ccc(C(=O)O)cc1)c1cc2c(cc1C)C(C)(C)CCC2(C)C` [Bexarotene], for which the “Morris swim test, time to reach the platform, apoE4 mice” value with apoE3 and apoE4 mice [1] (days 1-4, rendered similar to apoE3 mice) is “improves”. In addition, in the assay on apoE3 and apoE4 mice [1] (platform removed), the “Morris swim test, time searching for the missing platform: difference between apoE3 and apoE4 mice” value is on record as “abolished”. Besides, the “fear conditioning, freezing time: difference between apoE3 and apoE4 mice” value in the assay with apoE3 and apoE4 mice [2] is “abolished”. For the same compound, in the assay with mouse model of AD, the apoE synthesis entry was “enhanced”, the “clearance of soluble Aβ” value is reported as “within hours”, the cognitive deficits result is listed as “rapid reversal” and the neural circuit function entry is given as “improved”. Also, in the assay with mouse model of AD, the “time to reduced Aβ plaque area” value was not above 72 h. Further, the “object recognition impairment in apoE4 mice (time spent near the novel object)” value with apoE3 and apoE4 mice [3] is recorded as “reversed”.
